Data reported in PMC11202169, “A Novel Fluorescence-Based Microplate Assay for High-Throughput Screening of hSULT1As Inhibitors” (Biosensors, 2024).
Structures can show the parent of a compound that is named as a salt.

What was measured:
[1] = Fluorescence quantum yield; type: physicochemical; conditions: physiological conditions; standard quinine sulfate (Φ = 0.55)
Protocol: The fluorescence quantum yield is defined as the ratio of the number of photons emitted to the number of photons absorbed, which is a key parameter in fluorescence spectroscopy that describes the efficiency of the fluorescence process. The fluorescence quantum yields (Φ) of HN-241 and HN-241 sulfate were measured using quinine sulfate in 50 mM aqueous H2SO4 (Φ = 0.55) as the standard, and calculated according to the following Equation (1). (1) Yu=Ys × Fu × As/Fs × Au
“A” represents the absorbance at the excitation wavelength, “F” denotes the integral fluorescence intensity, and the subscripts “s” and “u” refer to the standard and sample, respectively.

[2] = test system: hSULT1As; assay: O-sulfation and spectroscopic changes with hSULT1As (statements for all isoforms together); type: biochemical, human; conditions: substrate 10 μM, all tested hSULT1A isozymes
Protocol: (§1) The incubation system consisted of Tris-HCl buffer (pH 7.4, 50 mM), MgCl2 (5 mM), DTT (200 μM), recombinant hSULT1As (29 pmol), and each fluorophore or 4-HN derivative (10 μM). After pre-incubation at 37 °C for 3 min, the reaction was initiated by adding an excess of PAPS (200 μM). Following 1 h incubation, the reaction was terminated with the addition of an equal volume of ice-cold acetonitrile. After centrifugation at 20,000× g for 20 min at 4 °C, the supernatant was collected for HPLC analysis. The mobile phase consisted of 10 mM aqueous ammonium acetate (A) and acetonitrile (B) at a flow rate of 0.4 mL/min. Gradient elution was performed under the following conditions: 0–2.0 min, 5% B; 2.0–10.0 min, 5–95% B; 10.0−12.0 min, 95% B; 12.0–12.5 min, 95–5% B; and 12.5–15.0 min, 5% B.
The spectroscopic changes in these fluorophores following O-sulfation were investigated. The incubation system was the same as that used in Section 2.3. The emission spectra of eight fluorophores in the presence and absence of three hSULT1A isoforms were determined using BioTek Synergy H1.

[3] = target: T1, hSULT1A3 (Homo sapiens, UniProt P0DMM9); assay: Enzymatic kinetics of hSULT1A3-catalyzed HN-241 4-O-sulfation; type: biochemical
T1 construct: 6-histidine tag (N); TEV site (N); made in house; host or cells: Escherichia coli BL21 (DE3), pET29a(+)
T1 sequence (P0DMM9 whole entry): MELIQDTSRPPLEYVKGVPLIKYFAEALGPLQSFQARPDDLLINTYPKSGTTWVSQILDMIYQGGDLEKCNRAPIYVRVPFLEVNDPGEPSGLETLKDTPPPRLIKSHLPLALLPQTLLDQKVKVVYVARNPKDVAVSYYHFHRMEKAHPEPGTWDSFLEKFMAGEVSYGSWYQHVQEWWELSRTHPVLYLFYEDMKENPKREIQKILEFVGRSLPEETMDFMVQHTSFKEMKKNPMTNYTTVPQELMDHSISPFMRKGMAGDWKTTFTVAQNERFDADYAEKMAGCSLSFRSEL
Protocol: (§2) The enzymatic kinetic parameters of hSULT1As-catalyzed HN-241 4-O-sulfation were measured by incubating increasing concentrations of HN-241 with each of the hSULT1As for a certain period. The fitting equations included Equation (2), the Michaelis–Menten equation, and Equation (3) for enzyme kinetics with substrate inhibition. Related kinetic parameters were fitted by GraphPad Prism 8.0 (San Diego, CA, USA). (2) V=Vmax × [S]/Km+[S] (3) V=Vmax × [S]/Km+[S](1+[S]/Ki)
(§3) [S] refers to the concentration of HN-241, Vmax is the maximum rate of hSULT1As-catalyzed HN-241 4-O-sulfation, Km is the substrate concentration at the half Vmax, and Ki represents the dissociation constant for the binding of the substrate to the inhibitory site.

[4] = target: T2, hSULT1A2 (Homo sapiens, UniProt P50226); assay: Enzymatic kinetics of hSULT1A2-catalyzed HN-241 4-O-sulfation; type: biochemical
T2 construct: 6-histidine tag (N); TEV site (N); made in house; host or cells: Escherichia coli BL21 (DE3), pET29a(+)
T2 sequence (P50226 whole entry): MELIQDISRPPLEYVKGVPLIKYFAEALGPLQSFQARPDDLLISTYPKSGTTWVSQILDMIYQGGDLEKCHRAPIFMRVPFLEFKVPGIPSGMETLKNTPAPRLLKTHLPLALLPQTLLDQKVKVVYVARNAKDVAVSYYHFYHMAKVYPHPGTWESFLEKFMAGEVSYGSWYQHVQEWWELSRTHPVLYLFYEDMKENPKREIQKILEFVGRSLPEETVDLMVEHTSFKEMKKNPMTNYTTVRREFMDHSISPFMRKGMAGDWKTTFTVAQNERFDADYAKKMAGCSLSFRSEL
Protocol: as §2, §3

[5] = target: T3, hSULT1A1 (Homo sapiens, UniProt P50225); assay: Enzymatic kinetics of hSULT1A1-catalyzed HN-241 4-O-sulfation; type: biochemical
T3 construct: 6-histidine tag (N); TEV site (N); made in house; host or cells: Escherichia coli BL21 (DE3), pET29a(+)
T3 sequence (P50225 whole entry): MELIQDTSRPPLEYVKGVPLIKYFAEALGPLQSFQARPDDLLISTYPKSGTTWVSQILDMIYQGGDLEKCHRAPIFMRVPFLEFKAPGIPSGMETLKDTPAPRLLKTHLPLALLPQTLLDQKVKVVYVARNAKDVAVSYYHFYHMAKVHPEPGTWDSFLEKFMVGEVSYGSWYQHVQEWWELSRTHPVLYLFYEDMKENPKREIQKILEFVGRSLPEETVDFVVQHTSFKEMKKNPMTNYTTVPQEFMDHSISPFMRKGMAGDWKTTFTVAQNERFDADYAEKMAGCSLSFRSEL
Protocol: as §2, §3

[6] = test system: hSULT1As; design: method as in PMID 12264750, PMID 35713964, PMID 6786543; conditions: ascorbic acid as competitive inhibitor of hSULT1As; ref [13],[14],[15]; cited from earlier work
[7] = target: T1, hSULT1A3; assay: hSULT1As reaction phenotyping assay (HPLC), hSULT1A3; type: biochemical; conditions: fluorophore 10 μM, PAPS 200 μM, 1 h, 37 °C
Protocol: as §1

[8] = target: T3, hSULT1A1; assay: hSULT1As reaction phenotyping assay (HPLC), hSULT1A1; type: biochemical; conditions: fluorophore 10 μM, PAPS 200 μM, 1 h, 37 °C
Protocol: as §1

[9] = target: T2, hSULT1A2; assay: hSULT1As reaction phenotyping assay (HPLC), hSULT1A2; type: biochemical; conditions: fluorophore 10 μM, PAPS 200 μM, 1 h, 37 °C
Protocol: as §1

Row | SMILES | Fluorescence quantum yield (Φ) [1] | O-sulfation by hSULT1As (in words) [2] | Sulfation rate: peak area of the sulfated metabolite detected by HPLC, hSULT1A3 [7] | Sulfation rate: peak area of the sulfated metabolite detected by HPLC, hSULT1A1 [8] | Sulfation rate: peak area of the sulfated metabolite detected by HPLC, hSULT1A2 [9] | also measured
1 | CCN1C(=O)c2cccc3c(OS(=O)(=O)O)ccc(c23)C1=O [HN-241 sulfate] | 0.86 | – | – | – | – | –
2 | CCN1C(=O)c2cccc3c(O)ccc(c23)C1=O [HN-241, 4-hydroxy-N-ethyl-1,8-naphthalimide] | 0.02 | highest O-sulfation rate | – | – | – | Clint ([3]; hSULT1A3): 683.26 μL/min/mg Protein; Vmax ([3]; hSULT1A3, Michaelis–Menten kinetics): 8814.00 pmol/min/mg Protein; Clint ([4]; hSULT1A2): 1440.94 μL/min/mg Protein; Vmax ([4]; hSULT1A2, Michaelis–Menten kinetics): 6441.00 pmol/min/mg Protein; Clint ([5]; HN-241 4-O-sulfation): 24,265.93 μL/min/mg Protein; Ki ([5]; substrate inhibition constant of HN-241 (binding of substrate to the inhibitory site)): 1370 ± 400 nM
3 | O=C1O[C@H]([C@@H](O)CO)C(O)=C1O [ascorbic acid] | – | – | – | – | – | Boost of the bioavailability of ethinylestradiol [6]: approximately 50%
4 | CCCCN1C(=O)c2cccc3c(O)ccc(c23)C1=O [fluorophore B, 4-hydroxy-N-butyl-1,8-naphthalimide] | – | – | ++ (“++” and “+++” denote ranges from 10,000 to 50,000, and greater than 50,000, respectively) | ++ (“++” and “+++” denote ranges from 10,000 to 50,000, and greater than 50,000, respectively) | ++ (“++” and “+++” denote ranges from 10,000 to 50,000, and greater than 50,000, respectively) | –
5 | CC1(C)OC(=C(C#N)C#N)C(C#N)=C1/C=C/c1cc2ccc(O)cc2oc1=O [fluorophore E] | – | – | +++ (“++” and “+++” denote ranges from 10,000 to 50,000, and greater than 50,000, respectively) | + (“+” shows the peak area of the sulfated metabolites of each fluorophore detected by HPLC, ranging from 0 to 10,000) | +++ (“++” and “+++” denote ranges from 10,000 to 50,000, and greater than 50,000, respectively) | –
6 | CC[n+]1ccc(/C=C/c2ccc(-c3ccc(O)cc3)s2)c2ccccc21 [fluorophore H] | – | highest O-sulfation rate | +++ (“++” and “+++” denote ranges from 10,000 to 50,000, and greater than 50,000, respectively) | +++ (“++” and “+++” denote ranges from 10,000 to 50,000, and greater than 50,000, respectively) | ++ (“++” and “+++” denote ranges from 10,000 to 50,000, and greater than 50,000, respectively) | –
